Measurements: publication PMC5603512, “Discovery, Semisynthesis, Antiparasitic and Cytotoxic Evaluation of 14-Membered Resorcylic Acid Lactones and Their Derivatives” (Scientific Reports, 2017)
pIC50: −log10 of the molar value. Where two headings read alike, the source gives them in different places.

How the values were obtained:
[1] = Cytotoxicity SRB assay, HCT-116; conditions: human
Method: (§1) All of the compounds were also evaluated for their cytotoxic properties against six human cancer cell lines (lung carcinoma epithelian (A549), colon carcinoma (HCT-116), pancreatic carcinoma (BXPC-3), breast cancer (MCF-7), cervical epithelium (HeLa), and erythroleukemic (K562)) and a human umbilical vein endothelial cell (HUVEC) line (Table 2).
(§2) The cytotoxicity against HCT-116, BXPC-3, HeLa, MCF-7, A-549, and HUVEC cell lines was evaluated using the SRB method. The cytotoxicity against K562 and Vero cell lines was evaluated using the MTT method. Adriamycin was used as a positive control. All cells were cultivated in T-75 flasks containing 10% Fetal Bovine Serum (FBS), Dulbeco’s Modified Eagle Medium (DMEM) with 2 mM L-glutamine, and 1% penicillin-streptomycin at 37 °C in a humidified atmosphere with 5% CO2. For SRB assay, cells in their log phase of growth were seeded into 96 well micro plates (4 × 10^4 cells per well) and followed by treating with test samples at 10 μM or DMSO. After incubation at 37 °C for 72 h, the cells were fixed with the cold 20% (w/v) TCA for 2 h and stained with Sulforhodamine B (SRB) dye for 0.5 h. The protein-bound dye is dissolved in Tris base solution for OD determination at 540 nm on an ELISA Plate Reader. For MTT assay, cells (5 × 10^3 cells per well) were plated in 96 well micro plates. After cell attachment overnight, new medium containing test compounds or DMSO was added. The plate was incubated for 48 h at 37 °C and incubated with 3-(4,5-dimethylthiazol-2-yl)-2,5-diphenyltetrazolium bromide (MTT) for additional 2–4 hours. The assay plate was then read at 490 nm on an ELISA Plate Reader. The data were obtained from experiments carried out in triplicate.

[2] = system: Leishmania donovani; assay: Antileishmanial assay (PicoGreen); type: cell-based
Method: The anti-leishmania activity was evaluated following the protocol described by Calderon et al.[39], using the fluorescent DNA intercalator PicoGreen (Invitrogen, USA). The species responsible for visceral leishmaniasis, L. donovani, was used for the assays.

[3] = system: Trypanosoma cruzi; assay: Antitrypanosomal assay (beta-galactosidase reporter, intracellular amastigotes in Vero cells); type: cell-based; conditions: for pIC50: Trypanosoma cruzi; as to Trypanosoma cruzi IC50: key: I: Inactive
Method: Briefly, the expression of the reporter gene for beta-galactosidase (β-Gal) in the Tulahuen clone C4 of T. cruzi is assessed by colorimetry at 570 nm, which correlates with the parasite growth. Assays were performed on the intracellular amastigote form of the parasite infecting African green monkey kidney (Vero) cells, incubated for 120 h at 37 °C with 5% CO2.

[4] = system: Plasmodium falciparum; assay: Antiplasmodial assay (PicoGreen growth inhibition in infected human erythrocytes); type: cell-based
Method: Activity against the causative agent of malaria was performed by culturing human erythrocytes and infecting them with P. falciparum, as described by Trager and Jensen[36]. Briefly, the W2 (Chloroquine resistant) and 3D7 (Chloroquine sensitive) strains of P. falciparum were cultured in RPMI 1640 medium (Sigma-Aldrich, USA) supplemented with 10% human serum (from O+ blood) at a hematocrit of 2% erythrocytes (O+) at 37 °C in a gas mixture of 5% CO2, 5% O2, and 90% N2. Parasites were synchronized by a temperature cycling technique as described by Almanza et al.[37]

[5] = Cytotoxicity SRB assay, HeLa; conditions: human
Method: as §1, §2

[6] = Cytotoxicity SRB assay, A-549; conditions: human
Method: as §1, §2

[7] = Toxicity against Vero cells (MTT); type: cell-based, African green monkey; conditions: African green monkey, MTT, 48 h
Method: It should be emphasized that toxicity is a major concern of drug discovery and development. The above active compounds were evaluated for in vitro toxicity against a mammalian kidney cell line (Vero). The selectivity index (SI) was used as the evaluation parameter of drug potential of the test samples by comparing the toxicity on the Vero cell line (CC50) and the selective inhibitory effect on P. falciparum, L. donovani or T. cruzi (IC50) calculated here as CC50/IC50.
Adriamycin was used as a positive control.

[8] = Cytotoxicity SRB assay, MCF-7; conditions: human
Method: as §1, §2

[9] = Cytotoxicity SRB assay, BXPC-3; conditions: human
Method: as §1, §2

[10] = Cytotoxicity MTT assay, K562; conditions: human
Method: as §1, §2

[11] = Cytotoxicity SRB assay, HUVEC; conditions: human
Method: as §1, §2

[12] = in vitro, read-out: Leishmania donovani IC50
[13] = Tulahuen clone C4, intracellular amastigotes in Vero cells, 120 h
[14] = Erythrocyte, in vitro, W2 and 3D7 strains cultured, strain of the values not stated, read-out: Plasmodium falciparum IC50
[15] = Vero cells (mammalian kidney cell line)
[16] = BXPC-3 pancreatic carcinoma cells
[17] = read-out: Leishmania donovani IC50
[18] = 3D7, Erythrocyte, read-out: Plasmodium falciparum IC50

Compound	IC50 at 72 h ([1]; HCT-116 colon carcinoma cells)	pIC50 [2, 12]	Trypanosoma cruzi IC50 [3, 13]	pIC50 [4, 14]	IC50 at 72 h ([5]; HeLa cervical epithelium cells)	IC50 at 72 h ([6]; A-549 lung carcinoma cells)	IC50 at 72 h ([8]; MCF-7 breast cancer cells)	IC50 at 72 h [9, 16]	IC50 at 48 h ([10]; K562 erythroleukemic cells)	IC50 at 72 h [1]	pIC50 [2, 17]	pIC50 [4, 18]	IC50 at 72 h [5]	IC50 at 72 h [6]	IC50 at 72 h [8]	IC50 at 72 h [9]	IC50 at 48 h [10]	other results
COc1cc(O)c2c(c1Cl)/C=C/C[C@H](O)[C@H](O)[C@@H](O)/C=C/C[C@H](C)OC2=O [Compound 16]	> 10 µM	< 4.80	I	< 4.51	> 10 µM	> 10 µM	> 10 µM	> 10 µM	> 10 µM	–	–	–	–	–	–	–	–	CC50 at 48 h [7, 15]: 260 µM
COc1cc(O)c2c(c1Cl)/C=C/C[C@H](O)[C@@H]1OC(C)(C)O[C@H]1/C=C/C[C@H](C)OC2=O [Compound 17]	> 10 µM	< 4.80	I	< 4.51	> 10 µM	> 10 µM	> 10 µM	> 10 µM	> 10 µM	–	–	–	–	–	–	–	–	CC50 at 48 h [7, 15]: 143 µM
COc1cc(O)c2c(c1)/C=C/C[C@H](O)[C@@H]1OC(C)(C)O[C@H]1/C=C/C[C@H](C)OC2=O [Compound 1, cochliomycin A]	> 10 µM	< 4.80	I	4.51	> 10 µM	> 10 µM	> 10 µM	> 10 µM	> 10 µM	–	–	–	–	–	–	–	–	CC50 at 48 h [7, 15]: 96 µM
COc1cc(O)c2c(c1)/C=C/C[C@@H](O)[C@@H](O)C(=O)/C=C/C[C@H](C)OC2=O [Compound 5]	> 10 µM	< 4.80	I	< 4.51	> 10 µM	> 10 µM	> 10 µM	> 10 µM	> 10 µM	–	–	–	–	–	–	–	–	–
COc1cc2c(c(OC(=O)c3cccs3)c1)C(=O)O[C@@H](C)C/C=C/C(=O)[C@@H](OC(=O)c1cccs1)[C@@H](OC(=O)c1cccs1)C/C=C/2 [Compound 22]	–	5.52	–	4.70	–	–	–	–	–	–	–	–	–	–	–	–	–	pIC50 ([3]; Tulahuen clone C4, intracellular amastigotes in Vero cells, 120 h, read-out: Trypanosoma cruzi IC50): 5.20; CC50 at 48 h [7, 15]: 11.5 µM
COc1cc(O)c2c(c1)/C=C/C[C@H](O)[C@H](O)C(=O)CCC[C@H](C)OC2=O [Compound 9]	–	–	I	–	–	–	–	–	–	> 10 µM	< 4.80	< 4.51	> 10 µM	> 10 µM	> 10 µM	> 10 µM	> 10 µM	CC50 at 48 h [7]: 131 µM
COc1cc(OC(C)=O)c2c(c1Cl)/C=C/C[C@H](OC(C)=O)[C@H](OC(C)=O)[C@@H](OC(C)=O)CCC[C@H](C)OC2=O [Compound 19]	–	–	I	–	–	–	–	–	–	> 10 µM	< 4.80	< 4.51	> 10 µM	> 10 µM	> 10 µM	> 10 µM	> 10 µM	–
C[C@@H]1[C@H](O)[C@@H](C)/C=C/C=C/C=C/C=C/C=C/C=C/C=C/[C@H](O[C@@H]2O[C@H](C)[C@@H](O)[C@H](N)[C@@H]2O)C[C@@H]2O[C@](O)(C[C@@H](O)C[C@@H](O)[C@H](O)CC[C@@H](O)C[C@@H](O)CC(=O)O[C@H]1C)C[C@H](O)[C@H]2C(=O)O [Amphotericin B, reference compound]	–	–	–	–	–	–	–	–	–	–	–	–	–	–	–	–	–	pIC50 ([2]; positive control, sentence ends with ref 40, read-out: IC50 of positive control, antileishmanial assay): 7.12
CCC(=O)Oc1cc(OC)cc2c1C(=O)O[C@@H](C)C/C=C/[C@H](OC(=O)CC)[C@@H](OC(=O)CC)[C@@H](OC(=O)CC)C/C=C/2 [Compound 14]	> 10 µM	< 4.80	I	< 4.51	> 10 µM	> 10 µM	> 10 µM	> 10 µM	> 10 µM	–	–	–	–	–	–	–	–	–
COc1cc(O)c2c(c1)/C=C/C[C@H](O)[C@@H](O)C(=O)/C=C/C[C@H](C)OC2=O [Compound 4]	> 10 µM	4.82	I	< 4.51	> 10 µM	> 10 µM	> 10 µM	> 10 µM	> 10 µM	–	–	–	–	–	–	–	–	–
COc1cccc2c1C(=O)c1c(O)c3c(c(O)c1C2=O)C[C@@](O)(C(=O)CO)C[C@@H]3O[C@H]1C[C@H](N)[C@H](O)[C@H](C)O1 [Adriamycin, reference compound]	0.21 µM	–	–	–	0.6 µM	0.16 µM	0.86 µM	0.033 µM	0.25 µM	–	–	–	–	–	–	–	–	–
COc1cc(O)c2c(c1)/C=C/C[C@H](O)[C@H](O)[C@@H](O)CCC[C@H](C)OC2=O [Compound 10]	–	–	I	–	–	–	–	–	–	> 10 µM	< 4.80	< 4.51	> 10 µM	> 10 µM	> 10 µM	> 10 µM	> 10 µM	CC50 at 48 h [7]: 274 µM
COc1cc(O)c2c(c1Cl)/C=C/C[C@H](O)[C@@H]1OC(C)(C)O[C@H]1CCC[C@H](C)OC2=O [Compound 18]	–	–	I	–	–	–	–	–	–	> 10 µM	< 4.80	< 4.51	> 10 µM	> 10 µM	> 10 µM	> 10 µM	> 10 µM	CC50 at 48 h [7]: 102 µM
COc1cc2c(c(OC(C)=O)c1)C(=O)O[C@@H](C)C/C=C/C(=O)[C@@H](OC(C)=O)[C@H](OC(C)=O)C/C=C/2 [Compound 24]	> 10 µM	4.92	–	< 4.51	> 10 µM	> 10 µM	–	–	–	–	–	–	–	–	–	–	–	IC50 at 72 h ([11]; HUVEC (umbilical vein endothelial cells)): > 10 µM; CC50 at 48 h [7, 15]: 3.2 µM
COc1cc(O)c2c(c1Cl)/C=C/C[C@H](O)[C@H](O)[C@@H](O)CCC[C@H](C)OC2=O [Compound 2, cochliomycin C]	–	–	I	–	–	–	–	–	–	> 10 µM	< 4.80	< 4.51	> 10 µM	> 10 µM	> 10 µM	> 10 µM	> 10 µM	–
CCN(CC)CCCC(C)Nc1ccnc2cc(Cl)ccc12 (centres unmarked) [chloroquine, reference compound]	–	–	–	–	–	–	–	–	–	–	–	–	–	–	–	–	–	pIC50 ([4]; Erythrocyte, read-out: IC50 of positive control, antiplasmodial assay): 7.48
COc1cc(O)c2c(c1)/C=C/C[C@H]1OC(C)(C)O[C@H]1C(=O)/C=C/C[C@H](C)OC2=O [Compound 25]	–	< 4.80	I	< 4.51	–	–	–	–	–	> 10 µM	–	–	> 10 µM	> 10 µM	> 10 µM	> 10 µM	> 10 µM	IC50 at 72 h [11]: > 10 µM
O=C(Cn1ccnc1[N+](=O)[O-])NCc1ccccc1 [benznidazole, reference compound]	–	–	–	–	–	–	–	–	–	–	–	–	–	–	–	–	–	pIC50 ([3]; Vero, control drug, sentence ends with ref 41, read-out: IC50 of control drug, antitrypanosomal assay): 5.41
COc1cc(O)c2c(c1)/C=C/C[C@H](O)[C@H](O)[C@@H](O)/C=C/C[C@H](C)OC2=O [Compound 8, zeaenol]	–	–	I	–	–	–	–	–	–	> 10 µM	< 4.80	< 4.51	> 10 µM	> 10 µM	> 10 µM	> 10 µM	> 10 µM	IC50 at 72 h [11]: > 10 µM; CC50 at 48 h [7]: 227 µM
